Laboratory results taken from patent publication US20220160820A1, “MODULATORS OF COMPLEMENT ACTIVITY” (Ra Pharmaceuticals, Inc., priority 2019, published 2022).

How the values were obtained:
[1] = tested on: human C5 polymorphisms (including p.R885>H/C); test: Binding and inhibitory activities in presence of C5 polymorphisms; conditions: presence of clinically-relevant human C5 polymorphisms (including p.R885>H/C)
[2] = In vivo drug-drug interaction study with anti-FcRn monoclonal antibody DX-2507; conditions: concomitant dosing of anti-FcRn monoclonal antibody DX-2507; Cynomolgus monkeys
Description: (§1) By inhibiting FcRN, DX-2504 inhibits Fc-mediated recycling, thereby reducing the half-life of IgG antibodies. Administration of DX-2504 serves as a model for intravenous immunoglobulin (IVIG) treatment, which reduces the half-life of IgG antibodies by overwhelming the Fc recycling mechanism with large doses of immunoglobulin.

[3] = In vivo drug-drug interaction study with cyclosporine A; conditions: following cyclosporine A administration; NHPs
[4] = In-vitro permeability, basement membrane model; format: in vitro ADME
Description: In some embodiments, the present disclosure provides methods of inhibiting C5 activity in a tissue by contacting the tissue with a tissue-penetrating C5 inhibitor. As used herein, the term “tissue-penetrating” refers to a property characterized by tissue permeability. […] Tissue penetration may be assessed by ability to cross basement membranes. As used herein, the term “basement membrane” refers to an extracellular matrix (ECM) protein layer separating endothelial cells from underlying tissues. Tissue penetration assessments may be done in vivo or in vitro and may include the use of basement membrane models. Such models may include measuring compound diffusion across artificial basement membranes. Such models may include the use of upper and lower reservoirs separated by an artificial basement membrane. Artificial basement membranes may include any of the ECM gel membranes described in Arends, F. et al. 2016. IntechOpen, DOI: 10.5772/62519, the contents of which are herein incorporated by reference in their entirety. ECM gel membranes may be prepared to include matrix components mimicking those found in the basal lamina of neuromuscular junctions.
The ECM gel membrane was prepared to include matrix components mimicking those found in the basal lamina of neuromuscular junctions.

[5] = Quantitative whole body analysis (QWBA) of radiolabeled zilucoplan; format: in vivo; conditions: rats, 24 hours
Procedure: In some embodiments, compound permeability may be determined using quantitative whole body analysis (QWBA). QWBA is a form of analysis that uses radiography to assess distribution of radiolabeled analytes. In some embodiments, radiolabeled compounds are administered to subjects and tissue distribution of the compounds is analyzed over time.
Enhanced permeability of zilucoplan was confirmed by quantitative whole body analysis (QWBA). […] Area under the concentration curve (AUC) for each organ or tissue analyzed was expressed as a percentage of plasma AUC to yield a biodistribution value, presented in Table 2 below. […] 5:297-305, are provided for comparison.

[6] = Zilucoplan levels in a patient receiving concomitant IVIG; format: in vivo, human; conditions: patient receiving concomitant therapeutic doses of IVIG
Description: as §1

[7] = molecular target: surface-bound C5b-9 or soluble membrane attack complex (sC5b-9) (Homo sapiens, UniProt P01031); test: Binding to C5b-9 / soluble membrane attack complex
[8] = tested on: Co-cultures of human myotubes and neuroblastoma cells; test: In vitro NMJ model: autoantibody-induced C5b-9 deposition by immunofluorescence; format: cell-based; conditions: 10 μM zilucoplan; anti-AChR 637 IgG1; human sera; anti-C5b-9 immunofluorescence
Procedure: Co-cultures of human myotubes and neuroblastoma cells were prepared and cultured with human sera as an in vitro NMJ model. […] Subsequent deposition of C5b-9 was observed by immunofluorescence using an anti-C5b-9 antibody (aE11, AbCam. Cambridge. UK).

## CCCCCCCCCCCCCCCC(=O)N[C@@H](CCC(=O)NCCOCCOCCOCCOCCOCCOCCOCCOCCOCCOCCOCCOCCOCCOCCOCCOCCOCCOCCOCCOCCOCCOCCOCCOCCCCC(=O)NCCCC[C@H](NC(=O)[C@@H](NC(=O)[C@@H]1CCCN1C(=O)[C@H](Cc1ccc(O)cc1)NC(=O)[C@H](CCC(=O)[O-])NC(=O)[C@H](Cc1c[nH]c2ncccc12)NC(=O)[C@H](Cc1ccc(O)cc1)NC(=O)[C@@H](NC(=O)[C@H](CC(=O)[O-])N(C)C(=O)[C@@H]1CC(=O)NCCCC[C@H](NC(C)=O)C(=O)N[C@@H](C(C)C)C(=O)N[C@@H](CCC(=O)O)C(=O)N[C@@H](CCCNC(=N)N)C(=O)N[C@@H](Cc2ccccc2)C(=O)N1)C(C)(C)C)C1CCCCC1)C(=O)[O-])C(=O)[O-].[Na+].[Na+].[Na+].[Na+] [zilucoplan]
[1]
  binding and inhibitory activities: not affected
[2]
  Zilucoplan pharmacodynamics: did not change
  Zilucoplan pharmacokinetics: did not change
[3]
  effects on zilucoplan exposure: No effects
[4]; 24 hours
  fraction introduced to upper reservoir diffused to lower reservoir: more than 60%
[4]; after 12 hours
  fraction introduced to upper reservoir diffused to lower reservoir: Greater than 20%
[5]; Bone
  Zilucoplan biodistribution % (tissue AUC as percentage of plasma AUC): 15.3%
[5]; Brain
  Zilucoplan biodistribution % (tissue AUC as percentage of plasma AUC): 0.9%
[5]; Fat
  Zilucoplan biodistribution % (tissue AUC as percentage of plasma AUC): 16.2%
[5]; Heart
  Zilucoplan biodistribution % (tissue AUC as percentage of plasma AUC): 22.9%
[5]; Large Intestine
  Zilucoplan biodistribution % (tissue AUC as percentage of plasma AUC): 21.7%
[5]; Liver
  Zilucoplan biodistribution % (tissue AUC as percentage of plasma AUC): 27.1%
[5]; Lung
  Zilucoplan biodistribution % (tissue AUC as percentage of plasma AUC): 37.5%
[5]; Lymph nodes
  Zilucoplan biodistribution % (tissue AUC as percentage of plasma AUC): 12.8%
[5]; Muscle
  Zilucoplan biodistribution % (tissue AUC as percentage of plasma AUC): 7.0%
[5]; Pancreas
  Zilucoplan biodistribution % (tissue AUC as percentage of plasma AUC): 15.8%
[5]; Small Intestine
  Zilucoplan biodistribution % (tissue AUC as percentage of plasma AUC): 10.9%
[5]; Spleen
  Zilucoplan biodistribution % (tissue AUC as percentage of plasma AUC): 15.5%
[5]; Stomach
  Zilucoplan biodistribution % (tissue AUC as percentage of plasma AUC): 8.5%
[5]; Testes
  Zilucoplan biodistribution % (tissue AUC as percentage of plasma AUC): 15.5%
[5]; Thymus
  Zilucoplan biodistribution % (tissue AUC as percentage of plasma AUC): 7.8%
[6]
  changes in zilucoplan levels: no changes
[7]
  binding to surface-bound C5b-9 or sC5b-9: does not bind
[8]
  C5b-9 deposition: absent
